# Test results published in patent publication US4515942A, “Antibiotics KA-6606 XII, XIII, XV, XVI and XVII” (Kowa Company, Ltd., priority 1980, dated 1985).
# Experiments:
# [1] = tested on: Pseudomonas aeruginosa NCTC 10490; experiment: disc plate method (Table 2); type: cell-based; conditions: paper disc 8 mm; for Inhibition zone (diameter): 1 mg/ml; for zone of inhibition at 1000 µg/mL / zone of inhibition at 10000 µg/mL: Pseudomonas aeruginosa, read-out: Inhibition zone (diameter); for zone of inhibition at 1000 µg/mL: NCTC10490, 1 mg/ml; for zone of inhibition at 10000 µg/mL: NCTC10490, 10 mg/ml
# Text: (§1) Tables 1 and 2 show the antibacterial spectra of the antibiotics KA-6606 VII to KA-6606 XVII against various bacteria, determined by the disc plate method, in comparison with the KA-6606 II substance. Each of the chemicals is used as impregnated in a paper disc having a diameter of 8 mm.
# [2] = tested on: Bacillus subtilis ATCC 6633; experiment: disc plate method (Table 2); type: cell-based; conditions: paper disc 8 mm; for Inhibition zone (diameter): 1 mg/ml; for Inhibition zone (diameter) / zone of inhibition at 1000 µg/mL: Bacillus subtilis ATCC 6633 (Table 2); for zone of inhibition at 1000 µg/mL / zone of inhibition at 10000 µg/mL: Bacillus subtilis, read-out: Inhibition zone (diameter); for zone of inhibition at 1000 µg/mL: ATCC6633, 1 mg/ml; for zone of inhibition at 10000 µg/mL: ATCC6633, 10 mg/ml, Bacillus subtilis ATCC 6633
# Text: as §1
# [3] = tested on: Escherichia coli NIHJ JC-2; experiment: disc plate method (Table 2); type: cell-based; conditions: paper disc 8 mm; for Inhibition zone (diameter): 1 mg/ml; for zone of inhibition at 1000 µg/mL / zone of inhibition at 10000 µg/mL: Escherichia coli, read-out: Inhibition zone (diameter); for zone of inhibition at 1000 µg/mL: NIHJJC2, 1 mg/ml; for zone of inhibition at 10000 µg/mL: NIHJJC2, 10 mg/ml
# Text: as §1
# Proteus inconstans [4] = experiment: disc plate method (Table 2); type: cell-based; conditions: 1 mg/ml, paper disc 8 mm, Proteus inconstans (Table 2); for zone of inhibition at 1000 µg/mL: Providencia alcalifaciens, read-out: Inhibition zone (diameter)
# Text: as §1
# Proteus vulgaris OX-107 = experiment: disc plate method (Table 2); type: cell-based; conditions: paper disc 8 mm; for Inhibition zone (diameter): 1 mg/ml; for zone of inhibition at 1000 µg/mL / zone of inhibition at 10000 µg/mL: Proteus vulgaris, read-out: Inhibition zone (diameter); for zone of inhibition at 1000 µg/mL: OX107, 1 mg/ml; for zone of inhibition at 10000 µg/mL: OX107, 10 mg/ml
# Text: as §1
# Serratia marcescens NHL = experiment: disc plate method (Table 2); type: cell-based; conditions: paper disc 8 mm; for Inhibition zone (diameter) / zone of inhibition at 1000 µg/mL: 1 mg/ml; for zone of inhibition at 1000 µg/mL / zone of inhibition at 10000 µg/mL: Serratia marcescens, read-out: Inhibition zone (diameter); for zone of inhibition at 10000 µg/mL: 10 mg/ml
# Text: as §1
# [5] = tested on: Klebsiella pneumoniae PCI 602; experiment: disc plate method (Table 2); type: cell-based; conditions: paper disc 8 mm; for Inhibition zone (diameter): 1 mg/ml; for zone of inhibition at 1000 µg/mL: Klebsiella pneumoniae, PCI602, 1 mg/ml, read-out: Inhibition zone (diameter)
# Text: as §1
# [6] = tested on: Staphylococcus aureus 209D-JC-1; experiment: disc plate method (Table 2); type: cell-based; conditions: paper disc 8 mm; for Inhibition zone (diameter): 1 mg/ml; for zone of inhibition at 1000 µg/mL / zone of inhibition at 10000 µg/mL: Staphylococcus aureus, read-out: Inhibition zone (diameter); for zone of inhibition at 1000 µg/mL: 209DJC1, 1 mg/ml; for zone of inhibition at 10000 µg/mL: 209DJC1, 10 mg/ml
# Text: as §1
# Solubility in solvents = type: physicochemical
# Stability = type: physicochemical; conditions: pH range in which stable
# [7] = tested on: Bacillus subtilis ATCC 6633; experiment: disc plate method (Table 1); type: cell-based; conditions: paper disc 8 mm, Bacillus subtilis ATCC 6633 (Table 1)
# Text: as §1
# Proteus vulgaria = experiment: disc plate method (Table 1); type: cell-based; conditions: 1 mg/ml, paper disc 8 mm
# Text: as §1
# Escherichia coli NIHJ = experiment: disc plate method (Table 1); type: cell-based; conditions: 1 mg/ml, paper disc 8 mm
# Text: as §1
# Proteus inconstans [8] = experiment: disc plate method (Table 1); type: cell-based; conditions: 1 mg/ml; paper disc 8 mm; Proteus inconstans (Table 1)
# Text: as §1
# [9] = tested on: Staphylococcus aureus 209P; experiment: disc plate method (Table 1); type: cell-based; conditions: 1 mg/ml, paper disc 8 mm
# Text: as §1
# Klebsiella pneumoniae = experiment: disc plate method (Table 1); type: cell-based; conditions: 1 mg/ml, paper disc 8 mm
# Text: as §1
# Serratia marcescens = experiment: disc plate method (Table 1); type: cell-based; conditions: 1 mg/ml, paper disc 8 mm
# Text: as §1
# Pseudomonas aeruginosa = experiment: disc plate method (Table 1); type: cell-based; conditions: 1 mg/ml, paper disc 8 mm, read-out: Inhibition zone (diameter)
# Text: as §1
# [10] = read-out: Inhibition zone (diameter)
SMILES,Solubility in solvents: chloroform (Solubility in solvents),Solubility in solvents: ethyl acetate (Solubility in solvents),Solubility in solvents: methanol (Solubility in solvents),Solubility in solvents: water (Solubility in solvents),Stability (stable at pH) (Stability),zone of inhibition at 1000 µg/mL [1],zone of inhibition at 1000 µg/mL [2],zone of inhibition at 1000 µg/mL [3],zone of inhibition at 1000 µg/mL (Proteus inconstans [4]),zone of inhibition at 1000 µg/mL (Proteus vulgaris OX-107),zone of inhibition at 1000 µg/mL (Serratia marcescens NHL),zone of inhibition at 1000 µg/mL [5],zone of inhibition at 1000 µg/mL [6],other results
CNC1C(OC)CC(N)C(OC2OC(C(C)N)CCC2N)C1O (centres unmarked) [KA-6606 VII],Insoluble,Insoluble,Easily soluble,Easily soluble,2-10 pH,–,–,–,–,–,–,–,–,"zone of inhibition at 1000 µg/mL ([7]; Bacillus subtilis, ATCC6633, 1 mg/ml, read-out: Inhibition zone (diameter)): 17.8 mm; zone of inhibition at 1000 µg/mL (Proteus vulgaria; [10]): 20.1 mm; zone of inhibition at 1000 µg/mL (Escherichia coli NIHJ; Escherichia coli, read-out: Inhibition zone (diameter)): 17.5 mm; Inhibition zone (diameter) (Proteus inconstans [8]): 9.0 mm; zone of inhibition at 1000 µg/mL ([9]; Staphylococcus aureus, 209P, read-out: Inhibition zone (diameter)): 9.3 mm; Inhibition zone (diameter) (Klebsiella pneumoniae): 9.0 mm; zone of inhibition at 1000 µg/mL (Serratia marcescens; [10]): 15.1 mm"
CNC1C(OC)CC(N)C(OC2OC(C(C)N)CCC2N)C1O (centres unmarked) [KA-6606 VIII],Insoluble,Insoluble,Easily soluble,Easily soluble,2-10 pH,–,–,–,–,–,–,–,–,Inhibition zone (diameter) ([7]; 1 mg/ml): 26.2 mm; Inhibition zone (diameter) (Proteus vulgaria): 23.3 mm; Inhibition zone (diameter) (Escherichia coli NIHJ): 21.9 mm; Inhibition zone (diameter) (Proteus inconstans [8]): 18.9 mm; Inhibition zone (diameter) [9]: 13.5 mm; Inhibition zone (diameter) (Klebsiella pneumoniae): 18.8 mm; Inhibition zone (diameter) (Serratia marcescens): 19.7 mm; zone of inhibition at 1000 µg/mL (Pseudomonas aeruginosa): 17.3 mm
CNC1C(OC)CC(N)C(OC2OC(CN)CCC2N)C1O (centres unmarked) [KA-6606 XIV],Insoluble,Insoluble,Easily soluble,Easily soluble,2-10 pH,9.2 mm,19.1 mm,11.8 mm,8.5 mm,12 mm,13.5 mm,9.5 mm,17.1 mm,–
CNC1C(OC)CC(N)C(OC2OC(C(C)N)=CCC2N)C1O (centres unmarked) [KA-6606 XIII],Insoluble,Insoluble,Easily soluble,Easily soluble,2-10 pH,14.8 mm,22.6 mm,18.4 mm,14.3 mm,18.5 mm,18.5 mm,17 mm,22 mm,–
CNC1C(O)CC(N)C(OC2OC(C(C)N)CCC2N)C1O (centres unmarked) [KA-6606 IX],Insoluble,Insoluble,Easily soluble,Easily soluble,2-10 pH,15.9 mm,23.8 mm,16.7 mm,–,15.2 mm,16 mm,13.7 mm,22.9 mm,Inhibition zone (diameter) (Proteus inconstans [4]): 9.4 mm
CNC1C(O)CC(N)C(OC2OC(C(C)N)CCC2N)C1O (centres unmarked) [KA-6606 XI],Insoluble,Insoluble,Easily soluble,Easily soluble,2-10 pH,–,–,–,–,–,–,–,–,Inhibition zone (diameter) [1]: 16.6 mm; Inhibition zone (diameter) [2]: 23.5 mm; Inhibition zone (diameter) [3]: 18.0 mm; Inhibition zone (diameter) (Proteus inconstans [4]): 19.0 mm; Inhibition zone (diameter) (Proteus vulgaris OX-107): 15.1 mm; Inhibition zone (diameter) (Serratia marcescens NHL): 16.8 mm; Inhibition zone (diameter) [5]: 18.5 mm; Inhibition zone (diameter) [6]: 25.2 mm
CNC1C(O)CC(N)C(OC2OC(CO)C(O)C(O)C2N)C1O (centres unmarked) [KA-6606 XII],Insoluble,Insoluble,–,Easily soluble,2-10 pH,–,–,–,–,–,–,–,–,zone of inhibition at 10000 µg/mL [1]: 9.3 mm; zone of inhibition at 10000 µg/mL [2]: 17.7 mm; zone of inhibition at 10000 µg/mL [3]: 9.2 mm; zone of inhibition at 10000 µg/mL (Proteus vulgaris OX-107): 9.3 mm; zone of inhibition at 10000 µg/mL (Serratia marcescens NHL): 9.8 mm; zone of inhibition at 10000 µg/mL [6]: 16.8 mm

# Continued, in another order:
Solubility in solvents: chloroform (Solubility in solvents),Solubility in solvents: ethyl acetate (Solubility in solvents),Solubility in solvents: methanol (Solubility in solvents),Solubility in solvents: water (Solubility in solvents),Stability (stable at pH) (Stability),SMILES,zone of inhibition at 1000 µg/mL [1],zone of inhibition at 1000 µg/mL [2],zone of inhibition at 1000 µg/mL [3],zone of inhibition at 1000 µg/mL (Proteus inconstans [4]),zone of inhibition at 1000 µg/mL (Proteus vulgaris OX-107),zone of inhibition at 1000 µg/mL (Serratia marcescens NHL),zone of inhibition at 1000 µg/mL [5],zone of inhibition at 1000 µg/mL [6],other results
Insoluble,Insoluble,Easily soluble,Easily soluble,2-10 pH,CNC1C(O)CC(N)C(OC2OC(C(C)N)CCC2N)C1O (centres unmarked) [KA-6606 X],–,–,–,–,–,–,–,–,Inhibition zone (diameter) [1]: 13.8 mm; Inhibition zone (diameter) [2]: 22.5 mm; Inhibition zone (diameter) [3]: 16.3 mm; Inhibition zone (diameter) (Proteus inconstans [4]): 11.9 mm; Inhibition zone (diameter) (Proteus vulgaris OX-107): 16.6 mm; Inhibition zone (diameter) (Serratia marcescens NHL): 16.5 mm; Inhibition zone (diameter) [5]: 17.4 mm; Inhibition zone (diameter) [6]: 23.3 mm
Insoluble,Insoluble,Easily soluble,Easily soluble,2-10 pH,CNC1C(OC)CC(N)C(OC2OC(CN)=CCC2N)C1O (centres unmarked) [KA-6606 XV],16.2 mm,23.1 mm,18.5 mm,9 mm,16.4 mm,18.2 mm,18.6 mm,23.3 mm,–
Insoluble,Insoluble,Easily soluble,Easily soluble,2-10 pH,CNC1C(OC)CC(NC(N)=O)C(OC2OC(C(C)N)CCC2N)C1O (centres unmarked) [KA-6606 XVII],–,–,–,–,–,–,–,–,zone of inhibition at 10000 µg/mL [1]: 10.1 mm; zone of inhibition at 10000 µg/mL [2]: 17.3 mm; zone of inhibition at 10000 µg/mL [3]: 10.7 mm; zone of inhibition at 10000 µg/mL (Proteus vulgaris OX-107): 16.8 mm; zone of inhibition at 10000 µg/mL (Serratia marcescens NHL): 13.6 mm; zone of inhibition at 10000 µg/mL [6]: 14.2 mm
Insoluble,Insoluble,Easily soluble,Easily soluble,2-10 pH,CNC1C(OC)CC(N)C(OC2OC(C(C)N)CCC2NC(N)=O)C1O (centres unmarked) [KA-6606 XVI],11.8 mm,20.6 mm,16.2 mm,8.9 mm,15.8 mm,16.3 mm,8.5 mm,16.3 mm,–
